According to PubChem BioAssay (NCI):
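Following 48 hours of exposure in 96-well plates, responses at five concentrations were used to interpolate endpoints linearly. TGI is the concentration that stops growth completely.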

Key:
Assay in all cases: NCI tumour cell line growth inhibition, 48 h
OVCAR-8 ovarian = system: OVCAR-8 ovarian
NCI-H23 lung = system: NCI-H23 lung
MOLT-4 leukemia = system: MOLT-4 leukemia
CAKI-1 renal = system: CAKI-1 renal
KM12 colon = system: KM12 colon
CCRF-CEM leukemia = system: CCRF-CEM leukemia
SW-620 colon = system: SW-620 colon
SK-MEL-2 melanoma = system: SK-MEL-2 melanoma
LOX IMVI melanoma = system: LOX IMVI melanoma
HOP-92 NSCLC = system: HOP-92 NSCLC
HCT-116 colon = system: HCT-116 colon
SK-MEL-5 melanoma = system: SK-MEL-5 melanoma
MALME-3M melanoma = system: MALME-3M melanoma
SNB-19 CNS = system: SNB-19 CNS
HCC-2998 colon = system: HCC-2998 colon
SF-295 CNS = system: SF-295 CNS
K-562 leukemia = system: K-562 leukemia
SR leukemia = system: SR leukemia
XF 498 CNS = system: XF 498 CNS
SN12C renal = system: SN12C renal
A498 renal = system: A498 renal
HOP-62 NSCLC = system: HOP-62 NSCLC
DMS 273 small cell lung = system: DMS 273 small cell lung
M14 melanoma = system: M14 melanoma
OVCAR-5 ovarian = system: OVCAR-5 ovarian
NCI-H522 lung = system: NCI-H522 lung
HL-60(TB) leukemia = system: HL-60(TB) leukemia
DMS 114 small cell lung = system: DMS 114 small cell lung
KM20L2 colon = system: KM20L2 colon
DLD-1 colon = system: DLD-1 colon
NCI-H460 lung = system: NCI-H460 lung
SNB-75 CNS = system: SNB-75 CNS
HCT-15 colon = system: HCT-15 colon
ACHN renal = system: ACHN renal
786-0 renal = system: 786-0 renal
EKVX NSCLC = system: EKVX NSCLC
SNB-78 CNS = system: SNB-78 CNS
UACC-62 melanoma = system: UACC-62 melanoma
OVCAR-4 ovarian = system: OVCAR-4 ovarian
OVCAR-3 ovarian = system: OVCAR-3 ovarian
SF-539 CNS = system: SF-539 CNS
RPMI-8226 leukemia = system: RPMI-8226 leukemia
LXFL 529 NSCLC = system: LXFL 529 NSCLC
A549 NSCLC = system: A549 NSCLC
UO-31 renal = system: UO-31 renal
U251 CNS = system: U251 CNS
SK-MEL-28 melanoma = system: SK-MEL-28 melanoma
NCI-H226 lung = system: NCI-H226 lung
UACC-257 melanoma = system: UACC-257 melanoma
IGROV1 ovarian = system: IGROV1 ovarian
SK-OV-3 ovarian = system: SK-OV-3 ovarian
HT29 colon = system: HT29 colon
M19-MEL melanoma = system: M19-MEL melanoma
TK-10 renal = system: TK-10 renal
COLO 205 colon = system: COLO 205 colon
RXF 393 renal = system: RXF 393 renal
SF-268 CNS = system: SF-268 CNS

Measured: TGI

C=CC1(CC)/C(=N\O)C(CC)(CC)C(=O)N1O (stereo unspecified)
> 100 µM: OVCAR-8 ovarian | NCI-H23 lung | MOLT-4 leukemia | CAKI-1 renal | KM12 colon | CCRF-CEM leukemia | SW-620 colon | SK-MEL-2 melanoma | LOX IMVI melanoma | HOP-92 NSCLC | HCT-116 colon | SK-MEL-5 melanoma | MALME-3M melanoma | SNB-19 CNS | HCC-2998 colon | SF-295 CNS | K-562 leukemia | SR leukemia | XF 498 CNS | SN12C renal | A498 renal | HOP-62 NSCLC | DMS 273 small cell lung | M14 melanoma | OVCAR-5 ovarian | NCI-H522 lung | HL-60(TB) leukemia | DMS 114 small cell lung | KM20L2 colon | DLD-1 colon | NCI-H460 lung | SNB-75 CNS | HCT-15 colon | ACHN renal | 786-0 renal | EKVX NSCLC | SNB-78 CNS | UACC-62 melanoma | OVCAR-4 ovarian | OVCAR-3 ovarian | SF-539 CNS | RPMI-8226 leukemia | LXFL 529 NSCLC | A549 NSCLC | UO-31 renal | U251 CNS | SK-MEL-28 melanoma | NCI-H226 lung | UACC-257 melanoma | IGROV1 ovarian | SK-OV-3 ovarian | HT29 colon | M19-MEL melanoma | TK-10 renal | COLO 205 colon | RXF 393 renal

COC(=O)c1cc(OC(C)=O)c2c(OC)ccc(OC)c2c1
> 100 µM: OVCAR-8 ovarian | NCI-H23 lung | MOLT-4 leukemia | CAKI-1 renal | KM12 colon | SW-620 colon | SK-MEL-2 melanoma | HOP-92 NSCLC | HCT-116 colon | SK-MEL-5 melanoma | MALME-3M melanoma | SF-295 CNS | K-562 leukemia | SR leukemia | XF 498 CNS | SN12C renal | DMS 273 small cell lung | M14 melanoma | OVCAR-5 ovarian | DMS 114 small cell lung | KM20L2 colon | DLD-1 colon | NCI-H460 lung | SNB-75 CNS | HCT-15 colon | ACHN renal | 786-0 renal | EKVX NSCLC | SNB-78 CNS | UACC-62 melanoma | OVCAR-4 ovarian | OVCAR-3 ovarian | SF-539 CNS | RPMI-8226 leukemia | LXFL 529 NSCLC | A549 NSCLC | U251 CNS | SK-MEL-28 melanoma | NCI-H226 lung | UACC-257 melanoma | IGROV1 ovarian | SK-OV-3 ovarian | HT29 colon | M19-MEL melanoma | TK-10 renal | COLO 205 colon | RXF 393 renal

[N-]=[N+]=Nc1ccccc1Oc1ccccc1
> 100 µM: OVCAR-8 ovarian | NCI-H23 lung | MOLT-4 leukemia | CAKI-1 renal | KM12 colon | SW-620 colon | SK-MEL-2 melanoma | LOX IMVI melanoma | HCT-116 colon | SK-MEL-5 melanoma | SNB-19 CNS | HCC-2998 colon | SF-295 CNS | K-562 leukemia | SR leukemia | XF 498 CNS | SN12C renal | A498 renal | HOP-62 NSCLC | DMS 273 small cell lung | M14 melanoma | OVCAR-5 ovarian | NCI-H522 lung | HL-60(TB) leukemia | DMS 114 small cell lung | KM20L2 colon | DLD-1 colon | NCI-H460 lung | SNB-75 CNS | HCT-15 colon | ACHN renal | 786-0 renal | EKVX NSCLC | SNB-78 CNS | UACC-62 melanoma | OVCAR-4 ovarian | SF-268 CNS | OVCAR-3 ovarian | SF-539 CNS | RPMI-8226 leukemia | LXFL 529 NSCLC | A549 NSCLC | UO-31 renal | U251 CNS | SK-MEL-28 melanoma | NCI-H226 lung | UACC-257 melanoma | IGROV1 ovarian | SK-OV-3 ovarian | HT29 colon | M19-MEL melanoma | TK-10 renal | COLO 205 colon
